Results on 27 compounds are retold here after patent publication US6780883B2, “Amide inhibitors of microsomal triglyceride transfer protein” (Warner-Lambert Company, priority 1998, dated 2004).

In experiment [1] the target is apolipoprotein(a), [apo(a)], apolipoproteinB-100, [apoB-100], coupling reaction that generates Lp(a) (Homo sapiens, UniProt P04114+P08519). Nature of the experiment: LPABC screen: lipoprotein(a) biochemical coupling assay, Lp(a) content by ELISA. As to conditions: recombinant apo(a) 17-kringle (293 cell media) + HepG2 conditioned media, 67 minutes, 37° C., 0.3 to 50 μM compound; read-out: Lp ABC IC50. How it is done:
LPABC Screen The lipoprotein(a), [Lp(a)], biochemical coupling assay (LPABC) is used to characterize inhibitors of the apolipoprotein(a), [apo(a)], apolipoproteinB-100, [apoB-100], coupling reaction that generates Lp(a). Conditioned media from 293 cells (ATCC CRL-1573), permanently transfected with an apo(a) 17-kringle cDNA expression construct (pcDNA-AMP, In Vitrogen, Carlsbad, Calif.) using standard molecular biology techniques, was used as a source of recombinant apo(a) is diluted 1:3 with phosphate buffered saline (PBS) and 90 μL is pipetted into each well of a 96-well plate and placed into a 37° C. incubator for 10 minutes. Twenty microliters of a 0.3 to 50 μM solution of a compound of the present invention in PBS is added to the warmed plate. Ninety microliters of HepG2 (ATCC HB-8065) cell conditioned media diluted 1:3 with PBS is added to the apo(a)/compound mixture and mixed by pipetting up and down 5 times. The reaction is incubated for 67 minutes in a 37° C. incubator. A 100 μL aliquot of the reaction is removed and assayed for its Lp(a) content by an enzyme linked immunosorbent assay (ELISA).

The test system of experiment [2] is Lp(a) production in HepG2^K17 cells. Put plainly: LPA3 screen: inhibition of Lp(a) production in transfected HepG2 cells, Lp(a) in media by ELISA. It counts as cell-based. As to conditions: Homo sapiens, 8 hours, 0.3 to 50 μM compound, Lp(a) normalized for total protein, read-out: Lp A3 IC50. On the procedure:
The LPA3 screen is used to identify compounds that inhibit Lp(a) production. This screen employs permanently transfected HepG2 cells (HepG2^K17) that are generated using an apo(a) 17-kringle cDNA expression construct (pcDNA-AMP, In Vitrogen, Carlsbad, Calif.) in accordance with methods that are well-known in molecular biology.
HepG2^K17 cells are seeded in 96-well plates at a density of 75,000 cells per well in 0.25 mL of Dulbecco's Modified Eagle Media (DMEM) containing 10% fetal bovine serum (FBS). Seeded plates are incubated overnight in a 37° C., 5% CO2/95% 02 incubator. The media is removed, replaced with (1) fresh media, or (2) fresh media plus 0.3 to 50 μM of a compound of the present invention in 20 μL of PBS, and the plates returned to the incubator for 8 hours. After the additional 8 hours of incubation, Lp(a) is assayed in the media by ELISA. Cells are digested with 0.5N NaOH overnight and assayed for total protein. Lp(a) values are normalized for total protein content.

The structures appear in SMILES notation. Some results are limits rather than exact numbers.

Take `CCOc1ccccc1C(=O)N(Cc1ccccc1-c1ccccc1)c1ccccn1` [Example 110, N-Biphenyl-2-ylmethyl-2-ethoxy-N-pyridin-2-yl-benzamide]: the IC50 in experiment [1] was greater than 50 µM; in experiment [2], 14 µM.

Turning to `CC(C)c1ccc(C(=O)N(Cc2ccc3c(c2)C(C)(C)CCC3(C)C)c2cccnc2)cc1` [Example 68, 4-Isopropyl-N-pyridin-3-yl-N-(5,5,8,8-tetramethyl-5,6,7,8-tetrahydro-naphthalen-2-ylmethyl)-benzamide], the IC50 was greater than 50 µM in experiment [1] and 39.8 µM in experiment [2].

As to `COc1ccc(N(Cc2ccccc2-c2ccccc2)C(=O)c2ccccc2SC)cc1` [Example 126, N-Biphenyl-2-ylmethyl-N-(4-methoxy-phenyl)-2-methylsulfanyl-benzamide], the IC50 is greater than 50 µM in experiment [1] and 16 µM in experiment [2].

As for `CCN(CC)CCCc1ccc(N(Cc2cccc(OC)c2)C(=O)c2ccccc2)cc1` [Example 55, N-[4-(3-Diethylamino-propyl)-phenyl]-N-(3-methoxy-benzyl)-benzamide], the 50% inhibitory concentration (IC50) in experiment [1] was greater than 50 µM; in experiment [2], 37 µM.

With `COc1ccc(C(=O)N(Cc2cc(Br)cc(Br)c2)c2ccccc2)cc1OC` [Example 43, N-(3,5-Dibromo-benzyl)-3,4-dimethoxy-N-phenyl-benzamide], the concentration for half-maximal inhibition (IC50) in experiment [1] was greater than 50 µM; in experiment [2], 31.6 µM.

On to `CCN(CC)CCCc1ccc(N(Cc2ccc(Cl)c(Cl)c2)C(=O)c2ccccc2)cc1` [Example 56, N-(3,4-Dichloro-benzyl)-N-[4-(3-diethylamino-propyl)-phenyl]-benzamide], for which the IC50 is greater than 50 µM in experiment [1] and 11 µM in experiment [2].

With `COc1ccc(CN(C(=O)c2ccccc2SCc2ccccc2)c2ccc(OC)cc2)cc1` [Example 40, 2-Benzylsulfanyl-N-(4-methoxy-benzyl)-N-(4-methoxy-phenyl)-benzamide], the 50% inhibitory concentration (IC50) in experiment [1] was greater than 50 µM; in experiment [2], 60.4 µM.

`O=C(c1ccccc1[N+](=O)[O-])N(Cc1ccccc1-c1ccccc1)c1ccccn1` [Example 112, N-Biphenyl-2-ylmethyl-2-nitro-N-pyridin-2-yl-benzamide]: the IC50 was greater than 50 µM in experiment [1] and 23.7 µM in experiment [2].

Consider `COc1ccccc1N(Cc1ccccc1-c1ccccc1)C(=O)c1ccccc1` [Example 88, N-Biphenyl-2-ylmethyl-N-(2-methoxy-phenyl)-benzamide], for which the 50% inhibitory concentration (IC50) was greater than 50 µM in experiment [1] and 16.5 µM in experiment [2].

For `CCCCOc1ccc(N(Cc2ccc(C(C)(C)C)cc2)C(=O)CN(CC)CC)cn1` [Example 83, N-(6-Butoxy-pyridin-3-yl)-N-(4-tert-butyl-benzyl)-2-diethylamino-acetamide], the half-maximal inhibitory concentration (IC50) is greater than 50 µM in experiment [1] and 34 µM in experiment [2].

With `COc1ccc(N(Cc2ccccc2-c2ccccc2)C(=O)c2ccccc2Br)cc1` [Example 108, N-Biphenyl-2-ylmethyl-2-bromo-N-(4-methoxy-phenyl)-benzamide], the figures for the 50% inhibitory concentration (IC50) in experiment [1] and in experiment [2] were greater than 50 µM and 37.7 µM, respectively.

Consider `O=C(c1ccccc1[N+](=O)[O-])N(Cc1ccccc1-c1ccccc1)c1ccncc1` [Example 122, N-Biphenyl-2-ylmethyl-2-nitro-N-pyridin-4-yl-benzamide], for which the values for the IC50 in experiment [1] and in experiment [2] were greater than 50 µM and 22.4 µM, respectively.

Turning to `CCOc1ccc(C(=O)N(Cc2ccccc2-c2ccccc2)c2ccncc2)cc1` [Example 124, N-Biphenyl-2-ylmethyl-4-ethoxy-N-pyridin-4-yl-benzamide], the IC50 is greater than 50 µM in experiment [1] and 3.3 µM in experiment [2].

Regarding `COc1ccc(CN(C(=O)c2ccccc2)c2ccccc2)cc1` [Example 60, N-(4-Methoxy-benzyl)-N-phenyl-benzamide], the IC50 in experiment [1] was greater than 50 µM; in experiment [2], 28.8 µM.

Take `COc1cccc(CN(C(=O)c2ccccc2)c2ccccc2OC)c1` [Example 87, N-(3-Methoxy-benzyl)-N-(2-methoxy-phenyl)-benzamide]: the values for the concentration for half-maximal inhibition (IC50) in experiment [1] and in experiment [2] were greater than 50 µM and 19.2 µM, respectively.

Turning to `CCOc1ccc(C(=O)N(Cc2ccccc2-c2ccccc2)c2ccc(OC)nc2)cc1` [Example 95, N-Biphenyl-2-ylmethyl-4-ethoxy-N-(6-methoxy-pyridin-3-yl)-benzamide], the concentration for half-maximal inhibition (IC50) is greater than 50 µM in experiment [1] and 11.4 µM in experiment [2].

As for `COc1ccc(N(Cc2ccccc2-c2ccccc2)C(=O)c2ccccc2[N+](=O)[O-])cn1` [Example 94, N-Biphenyl-2-ylmethyl-N-(6-methoxy-pyridin-3-yl)-2-nitro-benzamide], the concentration for half-maximal inhibition (IC50) in experiment [1] was greater than 50 µM; in experiment [2], 24.8 µM.

Take `CCN(CC)CCCc1ccc(N(Cc2ccc3ccccc3c2)C(=O)c2ccccc2)cc1` [Example 57, N-[4-(3-Diethylamino-propyl)-phenyl]-N-naphthalen-2-ylmethyl-benzamide]: the results for the half-maximal inhibitory concentration (IC50) in experiment [1] and in experiment [2] were greater than 50 µM and 11.4 µM, respectively.

In the case of `COc1ccc(C(=O)N(Cc2cc(C(F)(F)F)cc(C(F)(F)F)c2)c2ccccc2)cc1OC` [Example 42, N-(3,5-Bis-trifluoromethyl-benzyl)-3,4-dimethoxy-N-phenyl-benzamide], the results for the 50% inhibitory concentration (IC50) in experiment [1] and in experiment [2] were greater than 50 µM and 70.8 µM, respectively.

Turning to `COc1ccccc1N(Cc1ccc2ccccc2c1)C(=O)c1ccccc1` [Example 85, N-(2-Methoxy-phenyl)-N-naphthalen-2-ylmethyl-benzamide], the IC50 in experiment [1] was greater than 50 µM; in experiment [2], 10.2 µM.

For `CC(C)c1ccc(C(=O)N(Cc2ccc3ccccc3c2)c2cccnc2)cc1` [Example 70, 4-Isopropyl-N-naphthalen-2-ylmethyl-N-pyridin-3-yl-benzamide], the results for the IC50 in experiment [1] and in experiment [2] were greater than 50 µM and 7.2 µM, respectively.

With `COc1cc(C(=O)N(Cc2ccccc2-c2ccccc2)c2cnc3ccccc3c2)cc(OC)c1OC` [Example 64, N-Biphenyl-2-ylmethyl-3,4,5-trimethoxy-N-quinolin-3-yl-benzamide], the results for the concentration for half-maximal inhibition (IC50) in experiment [1] and in experiment [2] were greater than 50 µM and 13.1 µM, respectively.

Take `O=C(c1cc2ccccc2s1)N(Cc1cccnc1)Cc1ccccc1-c1ccccc1` [Example 125, Benzo[b]thiophene-2-carboxylic acid biphenyl-2-ylmethyl-pyridin-3-ylmethyl-amide]: the figures for the IC50 in experiment [1] and in experiment [2] were greater than 50 µM and 23.9 µM, respectively.

For `O=C(c1cc2ccccc2s1)N(Cc1ccccc1-c1ccccc1)c1cccnc1` [Example 116, Benzo[b]thiophene-2-carboxylic acid biphenyl-2-ylmethyl-pyridin-3-yl-amide], the figures for the IC50 in experiment [1] and in experiment [2] were greater than 50 µM and 9.3 µM, respectively.

On to `COc1cccc(CN(C(=O)c2ccc(OC)c(OC)c2)c2ccccc2)c1` [Example 45, 3,4-Dimethoxy-N-(3-methoxy-benzyl)-N-phenyl-benzamide], for which the results for the half-inhibitory concentration (IC50) in experiment [1] and in experiment [2] were greater than 50 µM and 52.1 µM, respectively.

As to `COc1ccc(N(Cc2ccccc2-c2ccccc2)C(=O)c2cccc(Sc3ccccc3)c2)cc1OC` [Example 136, N-Biphenyl-2-ylmethyl-N-(3,4-dimethoxy-phenyl)-3-phenylsulfanyl-benzamide], the IC50 in experiment [1] was greater than 50 µM; in experiment [2], 33.8 µM.

Consider `COc1ccc(N(Cc2cc(C(C)(C)C)cc(C(C)(C)C)c2)C(=O)c2cc(OC)c(OC)c(OC)c2)cn1` [Example 66, N-(3,5-Di-tert-butyl-benzyl)-3,4,5-trimethoxy-N-(6-methoxy-pyridin-3-yl)-benzamide], for which the IC50 in experiment [1] is greater than 50 µM; in experiment [2], 19.7 µM.

A word on the IC50: it is the concentration needed to halve the response being measured.
